Experimental data reported in PMC12156367, “Synthesis and Biological Evaluation of Seco-Coumarin/Furoxan Hybrids as Potent Anti-Tumor Agents to Overcome Multidrug Resistance via Multiple Mechanisms” (Molecules, 2025).
pIC50: −log10 of the molar value.

Experiments:
[1] = target: T1, hERG potassium channels (Homo sapiens, UniProt Q12809); experiment: Inhibition of hERG potassium channels (QPatch patch clamp, CHO-hERG cells); assay type: cell-based
T1 construct: expressed in transfected cells; host or cells: CHO-hERG cells (CHO cells expressing hERG)
Experimental: CHO-hERG cells (2 × 10^6 cells/dish) were seeded in confocal dishes. The compound stock solution was diluted with DMSO to six concentrations: 40.00, 13.33, 4.44, 1.48, 0.49, and 0.16 μM, which was prepared by using the Bravo platform. Both single-cell high-resistance sealing and whole-cell mode formation were automatically performed by the QPatch system (Shanghai Institute of Materia Medica, Shanghai, China). Each concentration was tested on at least two cells (n ≥ 2).

[2] = tested on: MCF-7/ADR; experiment: Antiproliferative activity of 9e after pre-treatment with inhibitors (MTT); assay type: cell-based, human
Experimental: Following harvest during logarithmic growth, cells were plated in 96-well culture plates at an initial density of 5000 cells per well. Incubate the plate overnight at 37 °C to allow the cells to adhere. Following the overnight incubation, introduce the compound at the predetermined concentration into each well, and then return the plate to the incubator for an additional 48 h culture period. After the 48 h treatment, carefully aspirate the drug-containing medium from each well. Subsequently, add 150 μL of 0.5 mg/mL MTT (Beyotime, China) solution to each well. Protect the plate from light and incubate it at 37 °C for 4 h to allow the formation of formazan crystals. Finally, add 150 μL of DMSO (Sinopharm, China) to each well and gently mix to ensure complete dissolution of the formazan crystals. The OD value at 570nm was measured using a microplate reader (Thermo Fisher, Waltham, MA, USA). Cell proliferation inhibition was determined using the following formula:Inhibition (%) = [(ODDMSO − ODcompd.)/(ODDMSO − ODblank)] × 100
Carboxy-PTIO (NO scavenger), NAC (N-acetylcysteine), tariquidar (P-glycoprotein inhibitor), and Fer-1 (ferrostatin-1, ferroptosis inhibitor) were purchased from Beyotime. MCF-7/ADR (5000 cells/well) were plated in 96-well plates and cultured overnight. Then, the cells were pre-treated with specified concentrations of inhibitors for 1 h and incubated with 9e (10 or 20 nM) or DMSO (24 h, 37 °C). Experimental procedures were the same as the method for the in vitro antiproliferative assay.

[3] = tested on: P-gp in MCF-7/ADR; experiment: Rh-123 accumulation assay (flow cytometry); assay type: cell-based, human; conditions: 9e 20 nM, vs DMSO
Experimental: Harvest the MCF-7/ADR cells and seed them into a 96-well plate (2 × 10^5 cells/well). Following overnight culture, cells were treated with 9e (10 and 20 nM) or DMSO (vehicle control) for 60 min. After aspiration of the medium, cells were washed thrice with PBS and subsequently incubated with Rh123 solution (1 μg/mL; Sigma-Aldrich) for 60 min. Subsequently, wash three times with PBS, then digest and centrifuge them (1000× g, 5 min). Resuspend the cells with 1 mL of PBS and centrifuge again (1000× g, 5 min). Finally, after resuspending the cells with 200 μL of PBS, the fluorescence of Rh123 was analyzed by flow cytometry (Beckman, Brea, CA, USA).

[4] = tested on: MCF-7 (human breast cancer cell line); experiment: In vitro antiproliferative assay (MTT, 48 h), MCF-7; assay type: cell-based; conditions: MCF7, mean of three determinations
Excerpt: The MDA-MB-468 cell line was procured from the Cell Bank of the Chinese Academy of Sciences. The MCF-7, MCF-7/ADR, MCF-10A, and MDA-MB-231 cell lines were kindly provided by Professor Xianyi Sha (Fudan University, Shanghai, China). The HUVEC cells were kindly provided by Associate Professor Hulie Zeng (Fudan University, Shanghai, China). The MDA-MB-468, MDA-MB-231, MCF-7, MCF-10A, and HUVEC cells were cultivated in DMEM (Service Biotechnology, China) supplemented with 10% FBS (Capricorn Scientific, Germany) and 1% penicillin-streptomycin (Meilunbio, Dalian, China). For the MCF-7/ADR cells, they were cultured in RPMI-1640 (Service Biotechnology, Wuhan, China), containing 10% FBS and 1% penicillin-streptomycin. […]
Following harvest during logarithmic growth, cells were plated in 96-well culture plates at an initial density of 5000 cells per well. […] The OD value at 570nm was measured using a microplate reader (Thermo Fisher, Waltham, MA, USA). Cell proliferation inhibition was determined using the following formula:Inhibition (%) = [(ODDMSO − ODcompd.)/(ODDMSO − ODblank)] × 100
GraphPad Prism software 9 was used to calculate the IC50 values. […] For instance, in the cell experiment, we recorded the cell viability values at different drug concentrations. […]

[5] = tested on: GPX4 in MCF-7/ADR; experiment: Western blot of GPX4; assay type: cell-based, human; conditions: after treatment of 9e
Experimental: MCF-7/ADR (2 × 10^5 cells/well) were plated in 6-well plates. After 24 h treatment with 9e (20 nM), cell lysates were prepared using RIPA buffer (Beyotime, Shanghai, China; 30 min, ice), then centrifuged (12,000 rpm, 10 min, 4 °C) to harvest protein supernatants. Protein concentrations were measured by BCA assay (Beyotime, Shanghai, China). The supernatants were then loaded and transferred onto PVDF membranes (Millipore, Billerica, MA, USA) for western blot. The blots were developed with ECL chemiluminescent solution (Meilunbio, Dalian, China). Commercially purchased antibodies include P-gp (Abcam, Cambridge, UK; ab170904), Caspase 3 (Proteintech, Wuhan, China; 19677-1-AP), Bcl-2 (Servicebio, Wuhan, China; GB113375-100), LC3 (Abcam, Abcam, Cambridge, UK; ab192890), P62 (Cell Signaling Technology, Danvers, MA, USA; 5114 T), Beclin (ABclonal, Wuhan, China; A7353), GPX4 (ABclonal, Wuhan, China; A11243), LAMP1 (Cell Signaling Technology, Danvers, MA, USA;15,665 T), GAPDH (Servicebio, Wuhan, China; GB11002-100), and β-Actin (Servicebio, Wuhan, China;GB11001-100). The secondary antibodies conjugated with horseradish peroxidase (HRP) were from Abmart.

T1 sequence (Q12809 whole entry): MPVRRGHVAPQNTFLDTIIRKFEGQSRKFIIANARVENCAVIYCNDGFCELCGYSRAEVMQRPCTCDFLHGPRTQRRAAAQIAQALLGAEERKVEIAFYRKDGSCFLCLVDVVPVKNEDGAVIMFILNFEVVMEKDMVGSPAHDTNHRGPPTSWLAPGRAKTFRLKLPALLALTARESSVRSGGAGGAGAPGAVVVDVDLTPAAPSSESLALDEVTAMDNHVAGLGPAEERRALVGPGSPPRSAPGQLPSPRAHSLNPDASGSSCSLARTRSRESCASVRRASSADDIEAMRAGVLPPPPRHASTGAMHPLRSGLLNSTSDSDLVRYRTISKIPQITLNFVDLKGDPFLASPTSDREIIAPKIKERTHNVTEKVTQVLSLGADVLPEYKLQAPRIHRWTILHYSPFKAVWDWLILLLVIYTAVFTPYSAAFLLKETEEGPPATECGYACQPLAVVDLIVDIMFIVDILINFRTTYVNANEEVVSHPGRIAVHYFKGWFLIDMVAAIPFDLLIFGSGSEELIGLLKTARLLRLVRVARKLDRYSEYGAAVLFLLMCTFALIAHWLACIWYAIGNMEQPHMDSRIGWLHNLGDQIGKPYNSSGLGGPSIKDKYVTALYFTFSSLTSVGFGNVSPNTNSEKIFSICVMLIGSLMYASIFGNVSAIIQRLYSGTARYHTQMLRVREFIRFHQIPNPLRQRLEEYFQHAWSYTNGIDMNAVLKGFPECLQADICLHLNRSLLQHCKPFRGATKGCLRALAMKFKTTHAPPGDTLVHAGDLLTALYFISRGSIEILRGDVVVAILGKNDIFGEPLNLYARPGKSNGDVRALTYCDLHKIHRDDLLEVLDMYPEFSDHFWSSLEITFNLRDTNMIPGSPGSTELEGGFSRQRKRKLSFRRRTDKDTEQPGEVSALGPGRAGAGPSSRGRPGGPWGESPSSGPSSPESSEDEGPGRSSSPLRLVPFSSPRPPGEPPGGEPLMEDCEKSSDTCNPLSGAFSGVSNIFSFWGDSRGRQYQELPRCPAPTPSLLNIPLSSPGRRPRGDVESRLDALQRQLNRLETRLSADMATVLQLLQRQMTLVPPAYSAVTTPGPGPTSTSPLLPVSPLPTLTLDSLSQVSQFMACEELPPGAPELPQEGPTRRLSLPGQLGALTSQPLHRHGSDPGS

SMILES: COc1ccc(CCC(=O)c2ccc(OCCOc3no[n+]([O-])c3S(=O)(=O)c3ccccc3)cc2OC)cc1 [Compound 9e, 4-(2-(3-methoxy-4-(3-(4-methoxyphenyl)propanoyl)phenoxy)ethoxy)-3-(phenylsulfonyl)-1,2,5-oxadiazole 2-oxide]
- pIC50 [1]: < 4.40
- inhibitory activity after NAC pretreatment ([2]; 10 nM 9e + 1250 μM NAC): completely lost its inhibitory activity
- cell survival rate with NO scavenger Carboxy-PTIO ([2]; 20 nM 9e + 100 μM Carboxy-PTIO): 53.7%
- cells still inhibited with P-gp inhibitor tariquidar ([2]; 9e + 5 μM tariquidar): 62%
- inhibition at 0.02 µM ([2]; Homo sapiens, NCI/ADR-RES, 9e 20 nM alone, read-out: proliferation inhibition rate): 89%
- Rh-123 accumulation (in words) [3]: accumulated significantly
- pIC50 [4]: 5.37
- expression of GPX4 [5]: clearly decreased
